According to patent US20160123957A1, “Visualization of P-TEFb by Fluorescence Complementation” (The Regents of the University of California, priority 2014, published 2016):

Experiments:
[1] = tested on: P-TEFb; test: BiFC assay, YC.P-TEFb coexpressed with YN.CTD in HEK293 cells; format: cell-based; conditions: for number of YFP-positive cells: versus normal culture conditions
Text: Sequences encoding amino acids 1-154 (YN) and 155-238 (YC) of YFP were amplified and cloned in mammalian expression plasmids. The YN.CTD chimera was constructed by inserting DNA fragments from a 52X heptapeptide (52 X SEQ ID NO: 4 (SEQ ID NO: 7)) CTD coding plasmid with a linker sequence encoding a nuclear localization signal, SEQ ID NO: 5. The YC.PTEFb chimera was constructed by inserting DNA fragments corresponding to P-TEFb into the YC plasmid, with Cdk9 and CycT1 sequences genetically fused to express as a single chimeric polypeptide, that can form a functional P-TEFb molecule. A polynucleotide coding for the linker of SEQ ID NO: 6 was optionally utilized in the constructs, between P-TEFb or CTD sequences and their associated fluorophores fragments. All proteins contained an anti-c-Myc antibody epitope tag at the N termini, and their expression in cells was confirmed by Western blotting using an anti-c-Myc antibody.
(§1) HeLa or HEK293 cells growing in log phase were transfected with plasmid DNA encoding YN.CTD and YC.P-TEFb fusion proteins by use of a lipofection agent. Incorporation of YC.P-TEFb into the 7SK snRNP was confirmed by immunoprecipitation and Western blot analysis with antibodies to the components of the 7SK snRNP.
The BiFC assay was used to detect interactions between released free P-TEFb and its natural substrate, RNA polymerase II CTD. When YC.P-TEFb was coexpressed with YN.CTD in HEK293 cells under normal culture conditions, very few weakly YFP-positive cells were detected. […] Because the emission peak of YFP (527 nm) is similar to that of GFP (509 nm), the BiFC-positive cells appeared green. […] YC.P-TEFb was employed to monitor P-TEFb activation by BiFC in cells.
A time-dependent increase in BiFC signals was monitored by time-lapse fluorescence microscopic analysis. HEK293 cells expressing YC.P-TEFb and YN.CTD were treated with 5 micromolar SAHA, and fluorescent images were taken every 3 min. BiFC signals were detected by 30 min after the addition of SAHA and reached a peak at a time point between 75 and 90 min. At later times, more intense and punctate nuclear staining reflected the accumulation of active P-TEFb in nuclear speckles. This finding is consistent with previous observations of P-TEFb release by SAHA with a consideration of the time required for maturation of the fluorophore.

[2] = tested on: 7SK snRNP; test: Immunoprecipitation and Western blot of 7SK snRNP fractions in cells expressing YC.P-TEFb; format: cell-based; conditions: HeLa or HEK293 cells, SAHA treatment
Text: as §1

CN1CCc2c(c3ccccc3n2Cc2ccc(C(=O)NO)cc2)C1 [tubastatin A]
number of YFP-positive cells [1]: did not increase

Nc1ncn([C@@H]2O[C@H](CO)[C@@H](O)[C@H]2O)c(=O)n1 [AzaC]
time-dependent increase in BiFC signals (P-TEFb release) ([1]; time-lapse fluorescence microscopy): released P-TEFb

O=C(CCCCCCC(=O)Nc1ccccc1)NO [SAHA]
time at which BiFC signals were detected after addition ([1]; 5 micromolar, time-lapse fluorescence microscopy, images every 3 min): ≤ 30 min | number of YFP-positive cells [1]: increased significantly | amounts of YC.P-TEFb and endogenous CycT1 proteins in 7SK snRNP fractions [2]: reduced | levels of free P-TEFb [2]: increased

CC(=O)NCCCCCCNC(C)=O [HMBA]
number of YFP-positive cells [1]: increased significantly
